Laboratory results: patent US20080045499A1, “Preferential Inhibition of Presenilin-1” (Elan Pharmaceuticals, Inc., priority 2006, published 2008)
Where two headings read alike, the source gives them in different places.

Experiments:
293sw = 293sw IC50 of gamma-secretase inhibitors; assay type: cell-based
[1] = biological target: T1, Presenilin-1-comprised γ-secretase (Homo sapiens, UniProt P49768); assay: Aβ1-x ELISA in Presenilin-1 transfected PS1/PS2 double knockout mouse fibroblasts; assay type: cell-based; details: Aβ1-x, Presenilin-1 transfected cells, overnight
T1 construct: expressed in transfected cells; host or cells: mouse fibroblasts derived from PS1/PS2 double knockout cells, pCF vector
Excerpt: (§1) A131-x represents any Aβ peptides longer than Aβ1-23, including Aβ38, Aβ40, and Aβ42, since Aβ1-x is defined operationally by an ELISA assay using proprietary antibody mAb 266 for capture and proprietary antibody mAb 3D6 for detection. The epitope for mAb266 is Aβ16-23, and the epitope for mAb 3D6 is Aβ1-5. […] Aβ40 ELISA employed antibodies mAb 266 as capture and 2G3 (specific for Ab40) as detection, respectively. Furthermore, Aβ42 ELISA employed antibodies mAb 266 as capture and 21F12 as detection, respectively. Hybridomas producing antibodies against Aβ16-23 were generated by standard murine fusion procedures as detailed in Kohler and Milstein (Nature 256:495 1975) and U.S. Pat. No. 4,666,829 which are hereby incorporated by reference in their entireties. See also “Detailed Description” herein. Briefly, two BALB/c mice immunized with Aβ13-28 conjugated to 2C-11 (a T-cell receptor monoclonal antibody) were sacrificed and the spleens removed. Mixed splenocytes were obtained by pressing the spleens through a 30 mesh stainless steel screen. These were fused with P3X63Ag8 murine myeloma cells (aminopterin sensitive) at a fusion ratio of 10:1 in 35% polyethylene-glycol. These cells were plated out in 96 well tissue culture plates in the presence of 2×10^6 thymocytes/ml. Hybridomas were selected for by growing the cells in the presence of aminopterin poisoned Dulbecco's modified Eagle's media augmented with hypoxanthine, thymine and 10% fetal bovine serum. Hybridomas were screened for reactivity against Aβ13-28 and AAP protein via ELISA. Positive clones were sub-cloned twice. Aliquots of the clones were frozen and stored in liquid nitrogen. Supernatants from positive clones were produced in large quantities for further purification of monoclonal antibodies.
(§2) For ELISA assays, each well of 96-well ELISA plates was coated with 100 μl of 10 μg/ml 266 in Well Coating Buffer (pH 8.5) at 4 degrees overnight, and blocked with 0.25% human BSA solution at 25 degrees for 120 minutes. The plate can be used directly without wash, after removing blocking solution.
(§3) ELISA assays were performed at room temperature. Fifty μl of conditioned medium from overnight culture of transfected cells, with or without gamma secretase inhibitors, were added to each well of ELISA plates, and incubated for 1 hour. After washing plates with Tris-buffered saline (TBS) plus 0.05% Tween-20, 50 μl biotinylated 3D6 antibody at 0.5 μg/ml was added to each well and incubate for 45 minutes. […] Next, plates were washed with Tris-buffered saline (TBS) plus 0.05% Tween-20, and 50 μl substrate (1-step slow TMB-Elisa, Pierce, Woburn, Mass., USA, catalogue number: 34024) was added to each well and incubated for 15 min. Finally, substrate reactions were terminate by adding to each well 15 ul 2 NH2SO4, and OD readings were obtained on SpectraMax Plus (Molecular Devices, Sunnyvale, Calif., USA). The Aβ concentration of samples was then obtained by comparing sample OD readings to those of standards.
(§4) EC50 values were derived by curve fitting of Aβ1-x levels, for samples treated with various concentrations of gamma secretase inhibitors, with XLfit software program (IDBS, Alameda, Calif., USA). Differences in EC50 values obtained for Presenilin-1 transfected cells and Presenilin-2 transfected cells exposed to a test compound served as an indicator of differential inhibition.
(§5) Transfected mouse fibroblasts derived from the PS1/PS2 double knockout cells are grown at 37 degree under 10% CO2 in Dulbecco's modified Eagle's medium (DMEM) containing 2-10% fetal bovine serum (FBS) and 100 μg/ml penicillin/streptomycin (Pen/Strp) (Invitrogen Corporation, Carlsbad, Calif., USA).
(§6) Cell culture medium is then removed from the transfected cell lines and analyzed for Aβ1-x levels by ELISA assay, as described in Example 1. ELISA assays are performed using ELISA plates coated with the mAb 266 to capture Aβ peptides and then by detecting Aβ peptides with biotinylated mAb 3D6.

[2] = biological target: T2, Presenilin-2-comprised γ-secretase (Homo sapiens, UniProt P49810); assay: Aβ1-x ELISA in Presenilin-2 transfected PS1/PS2 double knockout mouse fibroblasts; assay type: cell-based; details: Aβ1-x, Presenilin-2 transfected cells, overnight
T2 construct: expressed in transfected cells; host or cells: mouse fibroblasts derived from PS1/PS2 double knockout cells, pCF vector
Excerpt: as §1, §2, §3, §4, §5, §6

[3] = tested on: Presenilin-1-comprised γ-secretase relative to Presenilin-2-comprised γ-secretase; assay: PS1/PS2 selectivity: ratio of EC50 in Presenilin-2 and Presenilin-1 transfected cells; assay type: cell-based, human; details: EC50 of Presenilin-2 transfected cells over Presenilin-1 transfected cells
Excerpt: as §4
Cell culture medium is then removed from the transfected cell lines and analyzed for Aβ1-x levels by ELISA assay, as described in Example 1. ELISA assays are performed using ELISA plates coated with the mAb 266 to capture Aβ peptides and then by detecting Aβ peptides with biotinylated mAb 3D6. EC50 values are derived for all of the test compounds. Differences in EC50 values obtained for Presenilin-1 transfected cells and Presenilin-2 transfected cells exposed to a test compound serve as an indicator of differential inhibition.
For example, several tested compounds are sulfonamide compounds, while several are non-sulfonamide compounds. The ratio of the EC50 value obtained for Presenilin-2 transfected cells and Presenilin-1 transfected cells (indicated in the last column of Table I) indicates the degree to which the test compound is capable of preferentially inhibiting Presenilin-1. […] In Table 2, the values shown in columns A, B and C are EC50 values (nM). Where inhibition was very low, EC50 values were not generated by the program; thus EC50 values are not provided. Rather, percent of inhibition was estimated based on the inhibition curve generated by the program. Percentages indicate percentage inhibition at a compound concentration of 10 uM. […]

[4] = column A, read-out: PS1 EC50 (nM) A
[5] = column B, read-out: PS1 EC50 (nM) B
[6] = column A, read-out: PS2 EC50* (nM) A
[7] = column B, read-out: PS2 EC50* (nM) B
[8] = column C, read-out: PS1 EC50 (nM) C
[9] = column C, read-out: PS2 EC50* (nM) C

Compound	IC50 (293sw) [nM]	EC50 [1, 4] [nM]	EC50 [1, 5] [nM]	EC50 [2, 6] [nM]	EC50 [2, 7] [nM]	PS2/PS1 EC50 ratio [3]	EC50 [1, 8] [nM]	EC50 [2, 9] [nM]
C[C@@H](NC(=O)c1ccc(CN([C@@H]2CCCCNC2=O)S(=O)(=O)c2ccc(Cl)cc2)cc1)c1ccccc1	16	57	44	60	91	1.5	–	–
Cc1nc(-c2ccc(CN([C@@H]3CCCCNC3=O)S(=O)(=O)c3ccc(Cl)cc3)cc2)no1	44	105	98	750	809	8	–	–
O=C1NCCCC[C@H]1N(Cc1ccc2snnc2c1)S(=O)(=O)c1ccc(Cl)cc1	8	18	23	922	951	47	–	–
O=C1NCCCC[C@H]1N(Cc1ccc2nccnc2c1)S(=O)(=O)c1ccc(Cl)cc1	9	36	31	1410	1040	37	–	–
O=C(NCc1ccccc1)c1ccc(CN([C@@H]2CCCCNC2=O)S(=O)(=O)c2ccc(Cl)cc2)cc1	10	19	19	30	38	1.8	–	–
O=C1NCCCC[C@H]1N(Cc1ccc(Br)cc1)S(=O)(=O)c1ccc(Cl)cc1	243	106	259	1920	3410	15	159	–
O=C1NCCCC[C@H]1N(Cc1ccc(Br)cc1)S(=O)(=O)c1ccc(Cl)nc1	118	92	189	1570	2290	31	87	–
Cn1nnc2cc(CN([C@@H]3CCCCNC3=O)S(=O)(=O)c3ccc(Cl)cc3)ccc21	51	40	75	589	924	15	42	–
Cn1nnc2cc(CN([C@@H]3CCCCNC3=O)S(=O)(=O)c3ccc(Cl)nc3)ccc21	238	84	53	1980	1840	23	114	–
CCS(=O)(=O)CC[C@@H](C)N(c1cc(Cl)ccc1Cl)S(=O)(=O)c1ccc(Cl)cc1	182	153	868	5000	5700	10	598	–
C[C@H](NC(=O)[C@@H](O)c1cc(F)cc(F)c1)C(=O)Nc1cc(C(C)(C)c2ccccc2)n[nH]1	1	8.2	8.3	26	23	2	19	–
C[C@H](NC(=O)[C@@H](O)c1cc(F)cc(F)c1)C(=O)N[C@H](C(=O)NCC1CN(c2ccccc2)CCO1)c1ccccc1 (stereo partly drawn)	41	10	37	45	44	2	17.5	–
COc1ccc(CN([C@@H]2CCCCNC2=O)S(=O)(=O)c2ccc(Cl)cc2)cc1OC	126	91	89	1290	1980	27	109	4540
Cn1nnc2cc(CN([C@@H]3CCCCNC3=O)S(=O)(=O)c3ccc(Cl)s3)ccc21	775	122	87	6410	5310	47	102	3000
O=C1NCCCC[C@H]1N(Cc1ccc(-c2ncon2)cc1)S(=O)(=O)c1ccc(Cl)cc1	16	20	5.9	175	156	12	26	263
O=C1NCCCC[C@H]1N(Cc1ccc(-c2nccs2)cc1)S(=O)(=O)c1ccc(Cl)cc1	77	30	50	585	412	10	74	553
